Test results from PMC7749107, “Identification and functional characterization of the first molluscan neuromedin U receptor in the slug, Deroceras reticulatum” (Scientific Reports, 2020).
pEC50: −log10 of the molar value. “Also recorded” adds a separate entry of the source. Where two headings read alike, the source gives them in different places. Where a SMILES comes first, the peptide text is derived from it.

Legend:
DretNmU-Ra = target: T1, DretNmU-Ra (Deroceras reticulatum, UniProt A0A888YNE3); assay: Calcium mobilisation (FLIPR Calcium 6 fluorescence) receptor activation assay, Sf9 cells stably expressing DretNmU-Ra; type: cell-based; settings: for Binding activity (receptor response, ∆fluorescence) at single concentration: 500 nM peptide, three to four replicates, result in words
T1 sequence (A0A888YNE3 1-505): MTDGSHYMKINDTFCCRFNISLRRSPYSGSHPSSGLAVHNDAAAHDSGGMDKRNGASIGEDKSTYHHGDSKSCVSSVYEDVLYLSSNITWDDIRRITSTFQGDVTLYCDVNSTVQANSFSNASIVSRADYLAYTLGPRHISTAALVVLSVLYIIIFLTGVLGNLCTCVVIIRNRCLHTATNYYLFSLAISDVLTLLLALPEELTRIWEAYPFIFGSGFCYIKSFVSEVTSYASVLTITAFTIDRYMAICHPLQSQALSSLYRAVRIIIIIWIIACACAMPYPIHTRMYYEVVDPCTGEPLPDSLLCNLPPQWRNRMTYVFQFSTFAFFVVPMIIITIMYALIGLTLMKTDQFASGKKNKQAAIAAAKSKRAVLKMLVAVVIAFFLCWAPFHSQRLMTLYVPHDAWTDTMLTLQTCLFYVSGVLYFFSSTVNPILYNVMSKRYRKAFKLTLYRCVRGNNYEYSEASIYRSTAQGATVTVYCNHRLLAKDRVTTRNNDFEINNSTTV
Description: (§1) Sf9 cells were cultured in a 50 ml-Erlenmeyer flask while shaking at 145 rpm at 28 °C using Insectagro Sf9 Medium (Corning) supplemented with 5% heat-inactivated fetal bovine serum (HyClone, USA) and antibiotics (penicillin and streptomycin; Gibco). Three µg of either pIB/DretNmU-Ra or pIB/DretNmU-Rb plasmid was added to 100 μl of serum-free medium, and 15% CellFectin II (Invitrogen) in 100 μl serum-free medium was prepared, and both were placed at room temperature for 5 min. Samples were combined by pipetting and placed at room temperature for another 20 min. The plasmid-CellFectin II mixture was then added to a T-25 flask containing a layer of Sf9 cells covering about 70% of the surface, and incubated overnight. The next morning, the medium was replaced with fresh medium containing 50 μg/ml blasticidin. […] When culture was confluent, the recombinant cells were lifted and transferred to suspension cultures and grown until the exponential growth phase, and then stock cultures were frozen in liquid nitrogen. These frozen stock cell lines were thawed, cultivated for several passages in media containing 20 μg/ml blasticidin, and used for the ligand binding assays.
(§2) Two days before the binding assay, ~ 50,000 Sf9 cells expressing the DretNmU-Ra or -Rb from suspension cultures were dispensed into each well of a black 96-well plate (Corning C3603) and incubated at 28 °C overnight. At 48 h, cells were rinsed once with 100 μl of fresh medium without FBS. After removing the media, cells were incubated with 95 μl of 1 × FLIPR Calcium 6 reagent (Molecular Devices, USA) containing 2.5 mM probenecid at room temperature in the dark for 1 h. The Calcium 6 reagent-loaded cells were transferred to the Flexstation 3 multi-mode microplate reader (Molecular Devices) to measure fluorescence change (∆fluorescence) before and after loading 5 μl of peptide ligands (20×), detecting emission at 535 nm with excitation at 485 nm. Fluorescence measurements from each well on the column were taken every 5 s for 4 min. The peptide ligand was added by automatic pipettor once at 30 s from the beginning, and 5 μl of 5 μM ionomycin was added at 3 min to confirm calcium activity. Baseline fluorescence was determined by averaging 5 time points from each well prior to treatment with ligand and the resulting response was expressed as a percent increase in fluorescence relative to the baseline value.
(§3) For the initial screening and structure–activity tests, each cell line was exposed to a single concentration of 500 nM of each peptide or control. For the dosage-response assay, threefold serial dilutions of selected ligands with water were used, giving final ligand concentrations between 8 pM and 1.5 μM. The mean response from four wells receiving the same treatment in the same plate was regarded as one replicate, and at least three replicates from independent assays on different cell plates were analyzed. Data were transformed into a log scale and fit into the non-linear regression curve. EC50 values were obtained by statistical analysis using the sum of squares F-test function using GraphPad Prism version 8.0 (San Diego, CA, USA).

DretNmU-Rb = target: T2, DretNmU-Rb (Deroceras reticulatum, UniProt A0A888YNJ5); assay: Calcium mobilisation (FLIPR Calcium 6 fluorescence) receptor activation assay, Sf9 cells stably expressing DretNmU-Rb; type: cell-based; settings: for Binding activity (receptor response, ∆fluorescence) at single concentration: 500 nM peptide, three to four replicates, result in words
T2 sequence (A0A888YNJ5 1-502): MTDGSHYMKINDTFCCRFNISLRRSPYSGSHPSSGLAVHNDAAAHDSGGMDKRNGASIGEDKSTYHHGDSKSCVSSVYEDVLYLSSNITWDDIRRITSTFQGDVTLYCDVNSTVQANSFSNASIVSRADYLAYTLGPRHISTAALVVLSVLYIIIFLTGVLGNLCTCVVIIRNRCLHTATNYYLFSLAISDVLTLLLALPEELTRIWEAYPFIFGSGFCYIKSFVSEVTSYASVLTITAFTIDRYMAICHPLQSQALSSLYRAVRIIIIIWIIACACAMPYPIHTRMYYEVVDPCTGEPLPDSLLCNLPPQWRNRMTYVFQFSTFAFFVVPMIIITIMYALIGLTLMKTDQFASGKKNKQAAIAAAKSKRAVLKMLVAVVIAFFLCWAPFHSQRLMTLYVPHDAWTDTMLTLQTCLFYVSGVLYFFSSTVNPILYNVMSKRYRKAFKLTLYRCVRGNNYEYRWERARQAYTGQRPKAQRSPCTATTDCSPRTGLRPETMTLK
Description: as §1, §2, §3

Deroceras reticulatum = assay: Injection bioassay of the peptides in the slug; type: in vivo; settings: n = 4; for Atypical behaviors after injection: 10 nmol peptide in 5 μl water injected into the foot, observed for initial 30 min, compared with water control; for Mortality after 3 days: 10 nmol peptide in 5 μl water injected into the foot of adult slugs, 18 °C
Description: Two peptides, QPPLPRYa and QPPVPRYa, were dissolved in purified water to obtain a 2 mM concentration and individually injected into the adult slugs (270–520 mg in weight). A Hamilton syringe was used to inject a dose of 10 nmol peptide in 5 μl water or water only for control into the posterior part of the foot of the slug (n = 4). The foot was chosen as the injection site in order to avoid possible damage to internal organs, which are primarily located underneath the mantle. […] Since the treated slugs secreted a large amount of the defensive mucus, weight loss was assessed by weighing the slugs on a VWR B2-Series Analytical Balance immediately before the treatment and again 3 days later. Post treatment weights were obtained after slugs were placed under wet conditions (slugs placed in a ventilated 8 oz plastic container lined with damp tissue paper) or under dry conditions (same container type without damp tissue paper). Slugs were placed under these conditions approximately 30 min after injection. These plastic containers were maintained in a growth chamber (Thermo Scientific Precision Model 818) at 18 °C and 12 h photoperiod. Statistical analysis was performed by One-way ANOVA followed by Dunnett’s multiple comparisons test using GraphPad Prism version 8.0 (GraphPad Software, CA, USA).

[1] = Sf9 cells stably expressing DretNmU-Ra
[2] = Sf9 cells stably expressing DretNmU-Ra, calcium fluorescence, threefold serial dilutions 8 pM to 1.5 μM, four to five replicates from independent assays, each the mean of four wells, read-out: EC50, normalized concentration-response
[3] = Sf9 cells stably expressing DretNmU-Rb
[4] = Sf9 cells stably expressing DretNmU-Rb, calcium fluorescence, threefold serial dilutions 8 pM to 1.5 μM, four to five replicates from independent assays, each the mean of four wells, read-out: EC50, normalized concentration-response

CC(C)C[C@H](NC(=O)[C@@H]1CCCN1C(=O)[C@@H]1CCCN1C(=O)[C@@H](N)CCC(N)=O)C(=O)N1CCC[C@H]1C(=O)N[C@@H](CCCNC(=N)N)C(=O)N[C@@H](Cc1ccccc1)C(N)=O [QPPLPRFa] (H-QPPLPRF-NH2; N-terminus assumed)
Binding activity (receptor response, ∆fluorescence) at single concentration (DretNmU-Ra; [1]): retained normal activity | pEC50 (DretNmU-Ra; [2]): 7.26 | Binding activity (receptor response, ∆fluorescence) at single concentration (DretNmU-Rb; [3]): retained normal activity | pEC50 (DretNmU-Rb; [4]): 6.89

CC(C)C[C@H](NC(=O)[C@@H]1CCCN1C(=O)[C@@H]1CCCN1C(=O)[C@@H](N)CCC(N)=O)C(=O)N1CCC[C@H]1C(=O)N[C@@H](CCCNC(=N)N)C(=O)N[C@@H](Cc1ccc(O)cc1)C(N)=O [QPPLPRYa] (H-QPPLPRY-NH2; N-terminus assumed)
Atypical behaviors after injection (Deroceras reticulatum): triggered a series of distinct, atypical behaviors | Mortality after 3 days (Deroceras reticulatum; dry conditions): 100% | Mortality after 3 days (Deroceras reticulatum; wet conditions): 50% | pEC50 (DretNmU-Ra): 8.85 | Binding activity (receptor response, ∆fluorescence) at single concentration (DretNmU-Ra; [1]): evoked distinct binding | pEC50 (DretNmU-Rb): 8.39 | Binding activity (receptor response, ∆fluorescence) at single concentration (DretNmU-Rb; [3]): evoked distinct binding

QPPLPRAa [modified QPPLPRYa, alanine replacement of Y7]
Binding activity (receptor response, ∆fluorescence) at single concentration (DretNmU-Ra; [1]): almost completely disappeared | Binding activity (receptor response, ∆fluorescence) at single concentration (DretNmU-Rb; [3]): almost completely disappeared

PLPRYa [N-terminally truncated pentapeptide of QPPLPRYa]
Binding activity (receptor response, ∆fluorescence) at single concentration (DretNmU-Ra; [1]): gradual decrease of the binding ability | Binding activity (receptor response, ∆fluorescence) at single concentration (DretNmU-Rb; [3]): gradual decrease of the binding ability

CC(C)[C@H](NC(=O)[C@@H]1CCCN1C(=O)[C@@H]1CCCN1C(=O)[C@@H](N)CCC(N)=O)C(=O)N1CCC[C@H]1C(=O)N[C@@H](CCCNC(=N)N)C(=O)N[C@@H](Cc1ccc(O)cc1)C(N)=O [QPPVPRYa] (H-QPPVPRY-NH2)
Atypical behaviors after injection (Deroceras reticulatum): triggered a series of distinct, atypical behaviors | Mortality after 3 days (Deroceras reticulatum; dry conditions): 50% | Mortality after 3 days (Deroceras reticulatum; wet conditions): 0% | pEC50 (DretNmU-Ra): 8.19 | Binding activity (receptor response, ∆fluorescence) at single concentration (DretNmU-Ra; [1]): evoked distinct binding | pEC50 (DretNmU-Rb): 7.90 | Binding activity (receptor response, ∆fluorescence) at single concentration (DretNmU-Rb; [3]): evoked distinct binding

QPPLPRWa [modified QPPLPRYa, C-terminal Y replaced with W]
Binding activity (receptor response, ∆fluorescence) at single concentration (DretNmU-Ra; [1]): dramatically reduced in its binding activity; also recorded: activity was eliminated | Binding activity (receptor response, ∆fluorescence) at single concentration (DretNmU-Rb; [3]): dramatically reduced in its binding activity; also recorded: activity was eliminated

QPPLARYa [modified QPPLPRYa, alanine replacement of P5]
Binding activity (receptor response, ∆fluorescence) at single concentration (DretNmU-Ra; [1]): almost completely disappeared | Binding activity (receptor response, ∆fluorescence) at single concentration (DretNmU-Rb; [3]): almost completely disappeared

CC(C)C[C@H](NC(=O)[C@@H]1CCCN1C(=O)[C@@H]1CCCN1C(=O)[C@@H](N)CC(N)=O)C(=O)N1CCC[C@H]1C(=O)N[C@@H](CCCNC(=N)N)C(=O)N[C@@H](Cc1ccc(O)cc1)C(N)=O [NPPLPRYa] (H-NPPLPRY-NH2; N-terminus assumed)
pEC50 (DretNmU-Ra; [2]): 7.49 | pEC50 (DretNmU-Rb; [4]): 7.60

QPPLPAYa [modified QPPLPRYa, alanine replacement of R6]
Binding activity (receptor response, ∆fluorescence) at single concentration (DretNmU-Ra; [1]): almost completely disappeared | Binding activity (receptor response, ∆fluorescence) at single concentration (DretNmU-Rb; [3]): almost completely disappeared

CC[C@H](C)[C@H](NC(=O)[C@H](CCCNC(=N)N)NC(=O)[C@@H]1CCCN1C(=O)[C@H](CCCNC(=N)N)NC(=O)[C@@H]1CCCN1C(=O)[C@@H](NC(=O)[C@H](C)N)C(C)C)C(N)=O [AVPRPRIa] (H-AVPRPRI-NH2; N-terminus assumed)
Binding activity (receptor response, ∆fluorescence) at single concentration (DretNmU-Ra; [1]): evoked distinct binding | pEC50 (DretNmU-Ra; [2]): 8.19 | Binding activity (receptor response, ∆fluorescence) at single concentration (DretNmU-Rb; [3]): evoked distinct binding | pEC50 (DretNmU-Rb; [4]): 7.91

LPRYa [N-terminally truncated tetra-peptide of QPPLPRYa]
Binding activity (receptor response, ∆fluorescence) at single concentration (DretNmU-Ra; [1]): all activity was lost | Binding activity (receptor response, ∆fluorescence) at single concentration (DretNmU-Rb; [3]): all activity was lost
